Read-outs that look alike come from different tables or passages of the source. One block for each molecule: values may come before it.
Tests used:
P-gp = tested on: P-gp; parameters: method as in PMID 31371986; conditions: in vitro; cited from earlier work
cytochrome P450 (CYP3A) = tested on: cytochrome P450 (CYP3A); parameters: method as in PMID 31371986; conditions: preclinical studies; cited from earlier work
[1] = Pharmacokinetic study of osimertinib in rats after oral administration, with or without ginsenoside Rg3 pretreatment; type: in vivo, Male Sprague-Dawley rats
Description: The rats were randomly divided into two groups (six rats for each group). Osimertinib was dissolved and suspended by 1% carboxymethylcellulose sodium solution. The Rg3 powder in Shenyi capsule was dissolved in saline. In the first period, ginsenoside Rg3 (5 mg/kg) was orally administered to the rats in group I for seven days, and the rats in the other group were orally treated with normal saline for seven days. In the second period, the rats were fasted overnight with free access to water before the experiment. After overnight fasting, ginsenoside Rg3 (5 mg/kg) plus osimertinib (10 mg/kg) was orally administered to the rats in group I, and the rats received oral ginsenoside Rg3 30 min prior to osimertinib at the eighth day. Rats in group II were only orally treated with osimertinib (10 mg/kg) at the eighth day. Blood samples (each 100 μL) were collected via the oculi chorioideae vein at 0.5, 1, 2, 3, 4, 5, 6, 7, 8, 10, 12, 15, and 24 h after treatment in heparinized tubes. The blood samples were immediately centrifuged at 3000 rpm for 10 min. The plasma was separated from blood samples and transferred to clean tubes and immediately stored at −80°C until further analysis. The plasma concentrations of osimertinib were determined according to the aforementioned developed UPLC-MS/MS method.
The pharmacokinetic parameters, including the maximal plasma concentration (Cmax), area under the plasma concentration-time curve (AUC), time for the maximal plasma concentration (Tmax), and mean residence time (MRT), were calculated through noncompartmental analysis by Phoenix WinNonlin (Pharsight Inc., USA, version 1.1) software.

[2] = parameters: method as in PMID 31371986; conditions: rats; cited from earlier work
[3] = Stability of osimertinib in rat plasma under various storage conditions (QC samples, UPLC-MS/MS); type: physicochemical; conditions: for Autosampler stability, RE / Autosampler stability, measured concentration Mean ± SD: processed rat plasma sample, 4°C for 24 h; for Autosampler stability, RE / Autosampler stability, measured concentration Mean ± SD / Short-term stability, RE / Short-term stability, measured concentration Mean ± SD / Freeze-thawing stability, RE / Freeze-thawing stability, measured concentration Mean ± SD / Long-term stability, RE / Long-term stability, measured concentration Mean ± SD: n = 6; for Short-term stability, RE / Short-term stability, measured concentration Mean ± SD: room temperature for 6 h; for Freeze-thawing stability, RE / Freeze-thawing stability, measured concentration Mean ± SD: −80°C for 3 cycles
Description: (1) Short-Term Stability. QC samples (low, medium, and high levels) were assessed by analyzing QC samples kept at room temperature for six hours.
(2) Autosampler Stability. QC samples (low, medium, and high levels) were evaluated after the processed QC samples were placed in an autosampler (4°C) for 24 hours.
(3) Freeze-Thaw Stability. QC samples (low, medium, and high levels) were investigated after storage at room temperature for 8 h, followed by three freeze-thaw cycles (thawing at room temperature during 2 h and freezing again at −80°C for at least 12 h).
(4) Long-Term Stability. QC samples (low, medium, and high levels) were determined by analyzing after storage at −80°C for 28 days.

[4] = parameters: method as in PMID 29381826; conditions: patients with advanced NSCLC, cited from earlier work
BCRP = tested on: BCRP; parameters: method as in PMID 31371986; conditions: in vitro; cited from earlier work
[5] = male, Sprague-Dawley, rat, in vivo, po, 10 mg/kg
[6] = rat plasma, spiked 3 ng/mL, −80°C for 28 days
[7] = rat plasma, spiked 30 ng/mL, −80°C for 28 days
[8] = rat plasma, spiked 350 ng/mL, −80°C for 28 days

AUC0-t [1, 5]: 2820 ± 1200 ng·h/mL | CL/F [1, 5]: 330 ± 135 mL/min/kg | Vz/F [1, 5]: 130 ± 58 L/kg | half-life [1, 5]: 4.46 ± 0.94 h | AUC0-t ([1]; male, Sprague-Dawley, rat, in vivo, po, 10 mg/kg, AUC0-t): 2820 ± 1210 ng·h/mL | AUC(0-inf) ([1]; male, Sprague-Dawley, rat, in vivo, po, 10 mg/kg, AUC0-∞): 2900 ± 1210 ng·h/mL | Cmax ([1]; male, Sprague-Dawley, rat, in vivo, po, 10 mg/kg, C max): 317 ± 138 ng/mL | CL/F ([1]; male, Sprague-Dawley, rat, in vivo, po, 10 mg/kg, CL/F): 330 mL/min/kg | MRT last ([1]; male, Sprague-Dawley, rat, in vivo, po, 10 mg/kg, MRT0-t): 6.88 ± 0.62 h | Tmax ([1]; male, Sprague-Dawley, rat, in vivo, po, 10 mg/kg, T max): 3.33 ± 0.82 h | Vd/F ([1]; male, Sprague-Dawley, rat, in vivo, po, 10 mg/kg, Vz/F): 130 ± 58.1 L/kg | Autosampler stability, RE ([3]; spiked 3 ng/mL): 0.6% | Autosampler stability, measured concentration Mean ± SD ([3]; spiked 3 ng/mL): 3.02 ± 0.01 ng/mL | Autosampler stability, RE ([3]; spiked 30 ng/mL): −4.2% | Autosampler stability, measured concentration Mean ± SD ([3]; spiked 30 ng/mL): 28.7 ± 0.8 ng/mL | Autosampler stability, RE ([3]; spiked 350 ng/mL): 2.5% | Autosampler stability, measured concentration Mean ± SD ([3]; spiked 350 ng/mL): 359 ± 26 ng/mL | Short-term stability, RE ([3]; rat plasma, spiked 3 ng/mL): 6.8% | Short-term stability, measured concentration Mean ± SD ([3]; rat plasma, spiked 3 ng/mL): 3.20 ± 0.14 ng/mL | Freeze-thawing stability, RE ([3]; rat plasma, spiked 3 ng/mL): 1.0% | Freeze-thawing stability, measured concentration Mean ± SD ([3]; rat plasma, spiked 3 ng/mL): 3.03 ± 0.02 ng/mL | Long-term stability, RE [3, 6]: −1.5% | Long-term stability, measured concentration Mean ± SD [3, 6]: 2.96 ± 0.24 ng/mL | Short-term stability, RE ([3]; rat plasma, spiked 30 ng/mL): 0.4% | Short-term stability, measured concentration Mean ± SD ([3]; rat plasma, spiked 30 ng/mL): 30.1 ± 1.0 ng/mL | Freeze-thawing stability, RE ([3]; rat plasma, spiked 30 ng/mL): 0.4% | Freeze-thawing stability, measured concentration Mean ± SD ([3]; rat plasma, spiked 30 ng/mL): 30.1 ± 1.0 ng/mL | Long-term stability, RE [3, 7]: 9.1% | Long-term stability, measured concentration Mean ± SD [3, 7]: 32.7 ± 0.8 ng/mL | Short-term stability, RE ([3]; rat plasma, spiked 350 ng/mL): −2.7% | Short-term stability, measured concentration Mean ± SD ([3]; rat plasma, spiked 350 ng/mL): 341 ± 3 ng/mL | Freeze-thawing stability, RE ([3]; rat plasma, spiked 350 ng/mL): −0.3% | Freeze-thawing stability, measured concentration Mean ± SD ([3]; rat plasma, spiked 350 ng/mL): 349 ± 6 ng/mL | Long-term stability, RE [3, 8]: 2.4% | Long-term stability, measured concentration Mean ± SD [3, 8]: 359 ± 7 ng/mL | Stability under the conditions investigated ([3]; rat plasma, three QC concentrations, room temperature 6 h, autosampler 24 h, three freeze-thaw cycles (−80°C), −80°C for 28 days, all within ±15% of nominal): stable
Structure (SMILES): C=CC(=O)Nc1cc(Nc2nccc(-c3cn(C)c4ccccc34)n2)c(OC)cc1N(C)CCN(C)C [Osimertinib]
Substrate of P-gp (P-gp): substrate | Metabolizing enzyme (cytochrome P450 (CYP3A)): principally metabolized by cytochrome P450 (CYP3A) | MRT [2]: 14.51 h | Tmax [2]: about 4.48 h | t1/2 [2]: 14.96 h | Increase of exposure (AUC) ([4]; coadministered with itraconazole (strong CYP3A4 inhibitor)): 24% | Decrease of exposure (AUC) ([4]; coadministered with rifampicin (CYP3A4 inducer)): 78% | Substrate of BCRP (BCRP): substrate

Structure (SMILES): CC(C)=CCC[C@](C)(O)[C@H]1CC[C@]2(C)[C@@H]1[C@H](O)C[C@@H]1[C@@]3(C)CC[C@H](O[C@@H]4O[C@H](CO)[C@@H](O)[C@H](O)[C@H]4O[C@@H]4O[C@H](CO)[C@@H](O)[C@H](O)[C@H]4O)C(C)(C)[C@@H]3CC[C@]12C [Rg3, Ginsenoside Rg3]
Effect on the main pharmacokinetic parameters of osimertinib ([1]; Rg3 5 mg/kg oral for seven days, coadministered with osimertinib 10 mg/kg oral, rats): no significant effect

— paper PMC7785372, “An UPLC-MS/MS Method for Determination of Osimertinib in Rat Plasma: Application to Investigating the Effect of Ginsenoside Rg3 on the Pharmacokinetics of Osimertinib” (International Journal of Analytical Chemistry, 2020)
